Values after ≈ are worked out from the molar mass of the structure shown.
Legend:
Format in all cases: functional
Staphylococcus aureus [1] = assay: Antibacterial activity against Staphylococcus aureus at 150 mg/ml after 24 hrs by well diffusion assay; details: read-out: DIZ
Bacillus subtilis [2] = assay: Antibacterial activity against Bacillus subtilis after 18 to 24 hrs by microdilution broth assay
Vibrio cholerae [3] = assay: Antibacterial activity against Vibrio cholerae at 150 mg/ml after 24 hrs by well diffusion assay; details: read-out: DIZ
Vibrio cholerae [4] = assay: Antibacterial activity against Vibrio cholerae at 100 mg/ml after 24 hrs by well diffusion assay; details: read-out: DIZ
Vibrio cholerae [5] = assay: Antibacterial activity against Vibrio cholerae after 18 to 24 hrs by microdilution broth assay
[6] = test system: Radical scavenging activity; assay: Antioxidant activity assessed as DPPH radical scavenging activity after 30 mins; set-up: concentration or dose not given beside the values
Escherichia coli [7] = assay: Antibacterial activity against Escherichia coli after 18 to 24 hrs by microdilution broth assay
Vibrio cholerae [8] = assay: Antibacterial activity against Vibrio cholerae at 125 mg/ml after 24 hrs by well diffusion assay; details: read-out: DIZ
Klebsiella pneumoniae [9] = assay: Antibacterial activity against Klebsiella pneumoniae after 18 to 24 hrs by microdilution broth assay
Staphylococcus aureus [10] = assay: Antibacterial activity against Staphylococcus aureus at 125 mg/ml after 24 hrs by well diffusion assay; details: read-out: DIZ
Staphylococcus aureus [11] = assay: Antibacterial activity against Staphylococcus aureus after 18 to 24 hrs by microdilution broth assay
Klebsiella pneumoniae [12] = assay: Antibacterial activity against Klebsiella pneumoniae at 150 mg/ml after 24 hrs by well diffusion assay; details: read-out: DIZ
Klebsiella pneumoniae [13] = assay: Antibacterial activity against Klebsiella pneumoniae at 100 mg/ml after 24 hrs by well diffusion assay; details: read-out: DIZ
Klebsiella pneumoniae [14] = assay: Antibacterial activity against Klebsiella pneumoniae at 125 mg/ml after 24 hrs by well diffusion assay; details: read-out: DIZ
Staphylococcus aureus [15] = assay: Antibacterial activity against Staphylococcus aureus at 100 mg/ml after 24 hrs by well diffusion assay; details: read-out: DIZ
Escherichia coli [16] = assay: Antibacterial activity against Escherichia coli at 150 mg/ml after 24 hrs by well diffusion assay; details: read-out: DIZ
Bacillus subtilis [17] = assay: Antibacterial activity against Bacillus subtilis at 125 mg/ml after 24 hrs by well diffusion assay; details: read-out: DIZ
Escherichia coli [18] = assay: Antibacterial activity against Escherichia coli at 125 mg/ml after 24 hrs by well diffusion assay; details: read-out: DIZ
Bacillus subtilis [19] = assay: Antibacterial activity against Bacillus subtilis at 150 mg/ml after 24 hrs by well diffusion assay; details: read-out: DIZ
Bacillus subtilis [20] = assay: Antibacterial activity against Bacillus subtilis at 100 mg/ml after 24 hrs by well diffusion assay; details: read-out: DIZ
Escherichia coli [21] = assay: Antibacterial activity against Escherichia coli at 100 mg/ml after 24 hrs by well diffusion assay; details: read-out: DIZ

SMILES | zone of inhibition at 150000 µg/mL (Staphylococcus aureus [1]) [mm] | MIC (Bacillus subtilis [2]) [µg/mL] | zone of inhibition at 150000 µg/mL (Vibrio cholerae [3]) [mm] | MIC (Vibrio cholerae [5]) [µg/mL] | inhibition [6] [%] | MIC (Escherichia coli [7]) [µg/mL] | zone of inhibition at 125000 µg/mL (Vibrio cholerae [8]) [mm] | MIC (Klebsiella pneumoniae [9]) [µg/mL] | zone of inhibition at 125000 µg/mL (Staphylococcus aureus [10]) [mm] | MIC (Staphylococcus aureus [11]) [µg/mL] | zone of inhibition at 150000 µg/mL (Klebsiella pneumoniae [12]) [mm] | zone of inhibition at 100000 µg/mL (Klebsiella pneumoniae [13]) [mm] | zone of inhibition at 125000 µg/mL (Klebsiella pneumoniae [14]) [mm] | zone of inhibition at 100000 µg/mL (Staphylococcus aureus [15]) [mm] | zone of inhibition at 150000 µg/mL (Escherichia coli [16]) [mm] | zone of inhibition at 125000 µg/mL (Bacillus subtilis [17]) [mm] | zone of inhibition at 125000 µg/mL (Escherichia coli [18]) [mm] | zone of inhibition at 150000 µg/mL (Bacillus subtilis [19]) [mm] | zone of inhibition at 100000 µg/mL (Bacillus subtilis [20]) [mm] | zone of inhibition at 100000 µg/mL (Escherichia coli [21]) [mm] | further results
CCC12C=CC(O1)C(C(=O)c1ccccc1)C2c1ccc(OC)cc1 (stereo not drawn) | 13 | 625 (≈ 1870 µM) | 17 | 625 (≈ 1870 µM) | 15.1 | 625 (≈ 1870 µM) | 14 | 625 (≈ 1870 µM) | 11 | 1250 (≈ 3740 µM) |  |  |  |  |  |  |  |  |  |  | zone of inhibition at 100000 µg/mL (Vibrio cholerae [4]): 12 mm
CCC12C=CC(O1)C(C(=O)c1ccccc1)C2c1ccccc1F (stereo not drawn) | 16 | 1250 (≈ 3880 µM) |  | 625 (≈ 1940 µM) | 18.1 | 1250 (≈ 3880 µM) |  | 625 (≈ 1940 µM) | 15 | 1250 (≈ 3880 µM) | 14 | 10 | 13 | 13 | 12 |  |  |  |  |  | 
CCC12C=CC(O1)C(C(=O)c1ccccc1)C2c1ccc(C#N)cc1 (stereo not drawn) | 13 | 156 (≈ 474 µM) |  | 1250 (≈ 3790 µM) | 58.9 | 156 (≈ 474 µM) |  | 156 (≈ 474 µM) | 11 | 156 (≈ 474 µM) | 15 | 10 | 13 |  | 16 | 13 | 15 | 15 | 11 | 11 | 
CCC12C=CC(O1)C(C(=O)c1ccccc1)C2c1ccc([N+](=O)[O-])cc1 (stereo not drawn) | 13 | 1250 (≈ 3580 µM) |  | 1250 (≈ 3580 µM) | 21.6 | 1250 (≈ 3580 µM) |  | 625 (≈ 1790 µM) |  | 1250 (≈ 3580 µM) |  |  |  |  | 14 |  | 14 |  |  | 12 | 
CCC12C=CC(O1)C(C(=O)c1cccc(Br)c1)C2c1ccccc1 (stereo not drawn) |  | 625 (≈ 1630 µM) | 12 | 625 (≈ 1630 µM) | 36 | 625 (≈ 1630 µM) |  | 312 (≈ 814 µM) |  | 625 (≈ 1630 µM) |  |  |  |  | 14 |  | 12 |  |  |  | 
Cc1cc(C(C)(C)C)c(O)c(C(C)(C)C)c1 |  |  |  |  | 58.4 |  |  |  |  |  |  |  |  |  |  |  |  |  |  |  | 
CCC12C=CC(O1)C(C(=O)c1ccccc1)C2c1cccc(OC)c1 (stereo not drawn) | 17 | 625 (≈ 1870 µM) |  | 625 (≈ 1870 µM) | 33.4 | 625 (≈ 1870 µM) |  | 312 (≈ 933 µM) | 15 | 625 (≈ 1870 µM) | 13 |  | 12 |  | 16 |  | 15 |  |  | 13 | 
CCC12C=CC(O1)C(C(=O)c1ccccc1)C2c1ccccc1Cl (stereo not drawn) | 16 | 1250 (≈ 3690 µM) | 14 | 625 (≈ 1840 µM) | 22.2 | 1250 (≈ 3690 µM) | 12 | 625 (≈ 1840 µM) | 15 | 1250 (≈ 3690 µM) | 12 | 9 | 11 | 12 | 16 | 12 | 14 | 13 | 10 | 13 | zone of inhibition at 100000 µg/mL (Vibrio cholerae [4]): 11 mm
CCC12C=CC(O1)C(C(=O)c1ccccc1)C2c1cccc(Br)c1 (stereo not drawn) | 15 | 312 (≈ 814 µM) | 11 | 625 (≈ 1630 µM) | 23.2 | 312 (≈ 814 µM) |  | 156 (≈ 407 µM) | 12 | 31 (≈ 80.9 µM) | 14 |  | 12 | 11 | 15 | 14 | 12 | 17 | 11 |  | 
CCC12C=CC(O1)C(C(=O)c1ccccc1)C2c1ccc(F)cc1 (stereo not drawn) | 15 | 625 (≈ 1940 µM) |  | 625 (≈ 1940 µM) | 42.4 | 625 (≈ 1940 µM) |  | 625 (≈ 1940 µM) | 13 | 1250 (≈ 3880 µM) | 12 |  |  |  | 13 |  | 11 |  |  | 10 | 
CCC12C=CC(O1)C(C(=O)c1ccccc1)C2c1ccccc1Br (stereo not drawn) | 16 | 1250 (≈ 3260 µM) |  | 625 (≈ 1630 µM) | 17.7 | 1250 (≈ 3260 µM) |  | 625 (≈ 1630 µM) | 14 | 1250 (≈ 3260 µM) | 11 |  |  | 13 | 15 |  | 14 |  |  | 11 | 
CCC12C=CC(O1)C(C(=O)c1ccccc1)C2c1cccc(F)c1 (stereo not drawn) | 16 | 1250 (≈ 3880 µM) | 15 | 625 (≈ 1940 µM) | 22.3 | 1250 (≈ 3880 µM) | 14 | 312 (≈ 968 µM) | 14 | 625 (≈ 1940 µM) | 12 |  | 11 | 11 | 12 |  | 11 | 12 |  |  | zone of inhibition at 100000 µg/mL (Vibrio cholerae [4]): 12 mm
CCC12C=CC(O1)C(C(=O)c1ccccc1)C2c1ccc(Cl)cc1 (stereo not drawn) | 13 | 322 (≈ 950 µM) | 14 | 625 (≈ 1840 µM) | 35.5 | 312 (≈ 921 µM) | 13 | 156 (≈ 460 µM) |  | 625 (≈ 1840 µM) | 15 |  | 11 |  |  |  |  |  |  |  | zone of inhibition at 100000 µg/mL (Vibrio cholerae [4]): 11 mm
CCC12C=CC(O1)C(C(=O)c1ccccc1)C2c1ccc(Br)cc1 (stereo not drawn) | 14 | 312 (≈ 814 µM) | 12 | 625 (≈ 1630 µM) | 30.5 | 312 (≈ 814 µM) | 11 | 156 (≈ 407 µM) | 13 | 156 (≈ 407 µM) | 12 |  | 11 | 11 | 18 |  | 14 | 12 |  |  | 
O=C(O)c1cn(C2CC2)c2cc(N3CCNCC3)c(F)cc2c1=O [CIPROFLOXACIN] | 16 | 125 (≈ 377 µM) | 16 | 15 (≈ 45.3 µM) |  | 62 (≈ 187 µM) | 16 | 7 (≈ 21.1 µM) | 16 | 15 (≈ 45.3 µM) | 23 | 23 | 23 | 16 |  | 18 |  | 18 | 18 |  | zone of inhibition at 100000 µg/mL (Vibrio cholerae [4]): 16 mm
CCC12C=CC(O1)C(C(=O)c1ccc(Br)cc1)C2c1ccccc1 (stereo not drawn) | 17 | 78 (≈ 204 µM) | 11 | 312 (≈ 814 µM) | 32.6 | 78 (≈ 204 µM) | 10 | 78 (≈ 204 µM) | 13 | 1250 (≈ 3260 µM) | 16 | 11 | 14 | 11 | 17 | 14 | 16 | 17 | 12 | 12 | 
CCC12C=CC(O1)C(C(=O)c1ccccc1)C2c1ccccc1 (stereo not drawn) |  | 312 (≈ 1030 µM) |  | 1250 (≈ 4110 µM) | 58.9 | 312 (≈ 1030 µM) |  | 4 (≈ 13.1 µM) |  | 625 (≈ 2050 µM) | 19 | 13 | 16 |  | 15 | 16 | 14 | 18 | 12 |  | 
